Laboratory results reported in ChEMBL document CHEMBL1201862, “PubChem BioAssay data set” (2004).
Activity calls are given as the source filed them.

What was measured:
Trypsin = Trypsin (Sus scrofa, UniProt P00761); assay: trypsin protease activity blockade – biochemical, quenched peptide fluorescence, cherry-pick, selectivity assay for Rce1 protease inhibitor project, dose response (AID 488789)
[1] = molecular target: T1, Neuropeptide Y receptor type 1 (Homo sapiens, UniProt P25929); assay: IC50 of human NPY-Y1 blockers – cell-based, dose response (AID 1277); type: functional
T1 sequence (P25929 whole entry): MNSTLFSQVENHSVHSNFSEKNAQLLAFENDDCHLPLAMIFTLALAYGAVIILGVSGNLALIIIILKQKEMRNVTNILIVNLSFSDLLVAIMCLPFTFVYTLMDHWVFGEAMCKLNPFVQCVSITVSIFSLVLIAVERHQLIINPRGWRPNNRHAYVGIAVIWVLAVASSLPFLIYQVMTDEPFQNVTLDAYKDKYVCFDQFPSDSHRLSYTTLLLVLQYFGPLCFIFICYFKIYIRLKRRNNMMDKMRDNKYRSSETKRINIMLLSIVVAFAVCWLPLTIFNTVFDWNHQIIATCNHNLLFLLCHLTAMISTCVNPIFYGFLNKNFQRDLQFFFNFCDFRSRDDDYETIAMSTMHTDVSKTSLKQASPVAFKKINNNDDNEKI

[2] = Luminescence Cell-Based Dose Retest to Confirm Inhibitors of Cancer Stem Cells. [Related pubchem assays (depositor defined):AID2717, AID2721]; type: functional; settings: Homo sapiens
CAAX prenyl protease 2 = molecular target: T2, CAAX prenyl protease 2 (Saccharomyces cerevisiae S288c, UniProt Q03530); type: biochemical
T2 sequence (Q03530 whole entry): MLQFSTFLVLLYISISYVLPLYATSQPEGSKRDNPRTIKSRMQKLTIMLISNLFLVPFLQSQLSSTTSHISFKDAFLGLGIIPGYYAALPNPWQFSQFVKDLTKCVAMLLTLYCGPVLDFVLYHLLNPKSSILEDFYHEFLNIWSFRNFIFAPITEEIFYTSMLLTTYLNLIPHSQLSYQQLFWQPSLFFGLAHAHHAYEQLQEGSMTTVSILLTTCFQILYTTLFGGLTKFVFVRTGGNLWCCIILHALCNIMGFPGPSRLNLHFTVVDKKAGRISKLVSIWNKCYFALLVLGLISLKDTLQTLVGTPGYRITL

[3] = molecular target: T3, Neuropeptide Y receptor type 2 (Homo sapiens, UniProt P49146); assay: IC50 for human NPY-Y2 blockade – cell-based, counter-screen for NPY-Y1 antagonist project, dose response (AID 1278); type: functional
T3 sequence (P49146 whole entry): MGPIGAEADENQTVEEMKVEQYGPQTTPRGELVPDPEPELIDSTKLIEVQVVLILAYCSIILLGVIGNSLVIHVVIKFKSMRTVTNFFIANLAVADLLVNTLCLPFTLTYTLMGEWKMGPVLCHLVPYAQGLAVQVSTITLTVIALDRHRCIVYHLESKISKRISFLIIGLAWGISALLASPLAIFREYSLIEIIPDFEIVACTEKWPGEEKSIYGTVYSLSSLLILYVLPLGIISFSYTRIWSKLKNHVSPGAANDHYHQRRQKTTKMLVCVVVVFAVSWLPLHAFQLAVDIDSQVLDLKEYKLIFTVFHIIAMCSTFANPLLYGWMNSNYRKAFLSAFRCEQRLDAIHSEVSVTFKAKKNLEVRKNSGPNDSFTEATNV

[4] = molecular target: Peroxisome proliferator-activated receptor gamma/Nuclear receptor coactivator 2 (Homo sapiens, UniProt P37231); type: functional;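 also: agonist potency for raising coactivator recruitment to the receptor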
Chain of Peroxisome proliferator-activated receptor gamma/Nuclear receptor coactivator 2 (P37231 whole entry): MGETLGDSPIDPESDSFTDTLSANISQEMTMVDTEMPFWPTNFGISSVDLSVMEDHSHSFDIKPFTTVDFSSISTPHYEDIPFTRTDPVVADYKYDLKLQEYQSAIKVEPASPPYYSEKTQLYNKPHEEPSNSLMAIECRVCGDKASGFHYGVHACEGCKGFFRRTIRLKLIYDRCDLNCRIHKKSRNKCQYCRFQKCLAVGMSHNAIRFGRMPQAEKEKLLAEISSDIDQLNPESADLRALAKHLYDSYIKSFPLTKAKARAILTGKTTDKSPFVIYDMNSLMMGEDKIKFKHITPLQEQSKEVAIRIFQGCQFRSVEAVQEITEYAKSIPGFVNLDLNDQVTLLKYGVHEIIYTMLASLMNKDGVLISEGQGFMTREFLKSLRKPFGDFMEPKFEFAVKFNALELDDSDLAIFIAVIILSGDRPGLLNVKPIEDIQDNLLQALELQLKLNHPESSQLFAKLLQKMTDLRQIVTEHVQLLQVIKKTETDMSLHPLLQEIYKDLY
Chain of Peroxisome proliferator-activated receptor gamma/Nuclear receptor coactivator 2 (Q15596 whole entry, further chain): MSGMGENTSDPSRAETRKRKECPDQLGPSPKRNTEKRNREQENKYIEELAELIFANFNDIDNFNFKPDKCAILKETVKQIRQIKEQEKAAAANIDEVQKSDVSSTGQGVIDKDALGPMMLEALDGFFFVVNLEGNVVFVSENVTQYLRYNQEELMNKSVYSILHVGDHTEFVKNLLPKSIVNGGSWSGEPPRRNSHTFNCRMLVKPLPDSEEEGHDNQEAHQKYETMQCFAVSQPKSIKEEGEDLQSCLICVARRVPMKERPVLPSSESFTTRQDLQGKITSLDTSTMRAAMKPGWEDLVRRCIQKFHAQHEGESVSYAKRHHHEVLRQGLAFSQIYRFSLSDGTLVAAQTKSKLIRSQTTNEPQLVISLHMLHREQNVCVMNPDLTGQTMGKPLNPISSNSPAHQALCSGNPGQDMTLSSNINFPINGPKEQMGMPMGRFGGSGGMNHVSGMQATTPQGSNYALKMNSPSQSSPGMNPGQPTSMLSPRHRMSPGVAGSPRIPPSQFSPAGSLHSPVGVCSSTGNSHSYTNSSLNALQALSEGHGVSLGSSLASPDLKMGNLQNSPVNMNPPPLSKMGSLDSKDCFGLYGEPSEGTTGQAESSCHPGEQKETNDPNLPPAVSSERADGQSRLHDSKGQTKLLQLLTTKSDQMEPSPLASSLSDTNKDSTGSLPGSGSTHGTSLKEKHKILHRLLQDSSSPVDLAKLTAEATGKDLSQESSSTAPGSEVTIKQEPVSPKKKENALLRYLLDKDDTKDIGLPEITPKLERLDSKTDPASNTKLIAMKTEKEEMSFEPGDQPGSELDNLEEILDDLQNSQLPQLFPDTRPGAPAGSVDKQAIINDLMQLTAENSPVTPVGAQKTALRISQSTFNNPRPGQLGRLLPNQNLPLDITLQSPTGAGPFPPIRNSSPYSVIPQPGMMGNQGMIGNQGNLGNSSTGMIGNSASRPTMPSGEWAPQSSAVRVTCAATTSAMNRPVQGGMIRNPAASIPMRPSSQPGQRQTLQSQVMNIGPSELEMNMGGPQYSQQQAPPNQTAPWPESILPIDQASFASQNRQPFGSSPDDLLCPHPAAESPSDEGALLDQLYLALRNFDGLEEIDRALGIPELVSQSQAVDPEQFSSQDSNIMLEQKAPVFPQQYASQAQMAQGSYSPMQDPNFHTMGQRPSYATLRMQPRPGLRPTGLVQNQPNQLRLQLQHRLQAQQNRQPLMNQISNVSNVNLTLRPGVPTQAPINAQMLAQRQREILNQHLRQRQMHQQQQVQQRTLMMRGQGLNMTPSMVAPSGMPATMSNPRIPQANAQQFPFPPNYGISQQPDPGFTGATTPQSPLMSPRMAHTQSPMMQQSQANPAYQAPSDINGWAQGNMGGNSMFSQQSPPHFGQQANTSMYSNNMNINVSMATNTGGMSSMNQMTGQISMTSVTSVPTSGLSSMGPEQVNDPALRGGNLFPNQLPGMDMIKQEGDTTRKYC

[5] = molecular target: Peroxisome proliferator-activated receptor gamma/Nuclear receptor coactivator 3 (Homo sapiens, UniProt P37231); type: functional;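 also: agonist potency for raising coactivator recruitment to the receptor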
[6] = molecular target: Peroxisome proliferator-activated receptor gamma/Nuclear receptor coactivator 1 (Homo sapiens, UniProt P37231); type: functional;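 also: agonist potency as compounds enhance coactivator SRC-1 recruitment to PPARgamma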
[7] = molecular target: T4, Replicative DNA helicase DnaB (Mycobacterium tuberculosis, UniProt P9WMR3); assay: DnaB intein splicing inhibitors, dose response, biochemical, cell-free fluorescence (AID 449749); type: functional
T4 sequence (P9WMR3 whole entry): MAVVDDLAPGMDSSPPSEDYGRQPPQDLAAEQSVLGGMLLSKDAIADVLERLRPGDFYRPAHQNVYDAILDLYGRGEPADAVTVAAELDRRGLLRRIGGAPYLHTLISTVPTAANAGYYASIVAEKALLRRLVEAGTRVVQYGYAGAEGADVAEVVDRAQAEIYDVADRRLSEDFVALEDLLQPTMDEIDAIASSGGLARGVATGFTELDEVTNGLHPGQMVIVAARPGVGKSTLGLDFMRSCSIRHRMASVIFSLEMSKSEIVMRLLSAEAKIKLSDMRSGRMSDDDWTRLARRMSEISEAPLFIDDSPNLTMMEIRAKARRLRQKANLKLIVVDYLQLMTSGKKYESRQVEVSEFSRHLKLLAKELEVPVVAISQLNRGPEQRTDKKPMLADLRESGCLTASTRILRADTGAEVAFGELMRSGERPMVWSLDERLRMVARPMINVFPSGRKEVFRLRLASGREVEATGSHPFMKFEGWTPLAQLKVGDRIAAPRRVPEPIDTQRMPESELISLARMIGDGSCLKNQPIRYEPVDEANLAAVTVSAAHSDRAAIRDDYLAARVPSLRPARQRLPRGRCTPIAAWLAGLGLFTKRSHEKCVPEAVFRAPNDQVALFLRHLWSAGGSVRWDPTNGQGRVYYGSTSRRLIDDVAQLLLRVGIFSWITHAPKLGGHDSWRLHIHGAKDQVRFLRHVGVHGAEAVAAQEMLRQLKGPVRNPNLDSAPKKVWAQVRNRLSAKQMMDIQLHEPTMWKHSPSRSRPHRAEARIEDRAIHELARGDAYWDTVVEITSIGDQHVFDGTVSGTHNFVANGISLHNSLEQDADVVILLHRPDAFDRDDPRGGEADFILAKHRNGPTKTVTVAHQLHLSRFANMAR

Protein RecA = molecular target: T5, Protein RecA (Mycobacterium tuberculosis, UniProt P9WHJ3); assay: Fluorescence Cell-Free Homogeneous Dose Retest to Identify Inhibitors of RecA-Intein Splicing Activity. [Related pubchem assays (depositor defined):AID2097, AID2223, AID489010, AID492950]; type: functional
T5 sequence (P9WHJ3 whole entry): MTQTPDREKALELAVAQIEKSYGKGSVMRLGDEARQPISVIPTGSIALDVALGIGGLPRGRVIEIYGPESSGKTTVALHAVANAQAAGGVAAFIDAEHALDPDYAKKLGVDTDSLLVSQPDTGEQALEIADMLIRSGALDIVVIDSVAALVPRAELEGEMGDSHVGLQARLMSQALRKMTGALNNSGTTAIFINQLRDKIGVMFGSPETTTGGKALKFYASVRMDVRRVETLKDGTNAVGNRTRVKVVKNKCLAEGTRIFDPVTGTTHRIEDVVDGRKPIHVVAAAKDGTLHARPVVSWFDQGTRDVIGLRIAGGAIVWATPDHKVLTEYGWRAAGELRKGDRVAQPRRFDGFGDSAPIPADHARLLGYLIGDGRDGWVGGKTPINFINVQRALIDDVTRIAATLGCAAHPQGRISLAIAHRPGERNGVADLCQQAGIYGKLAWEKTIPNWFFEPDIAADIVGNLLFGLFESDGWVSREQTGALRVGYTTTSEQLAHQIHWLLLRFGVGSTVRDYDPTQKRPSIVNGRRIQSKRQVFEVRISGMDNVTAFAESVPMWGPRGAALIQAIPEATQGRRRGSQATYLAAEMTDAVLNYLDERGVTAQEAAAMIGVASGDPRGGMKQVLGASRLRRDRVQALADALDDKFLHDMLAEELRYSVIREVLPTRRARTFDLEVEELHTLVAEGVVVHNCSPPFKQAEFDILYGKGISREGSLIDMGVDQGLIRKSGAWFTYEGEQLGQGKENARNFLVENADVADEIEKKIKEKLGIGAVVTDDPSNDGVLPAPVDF

[8] = molecular target: Potassium voltage-gated channel subfamily KQT member 2 (Rattus norvegicus, UniProt O88943, W236L); assay: potentiation of rat KCNQ2 current – cell-based, automated electrophysiology, mechanism study for KCNQ2 potentiator project, dose response (AID 2603); type: functional
Chain of Potassium voltage-gated channel subfamily KQT member 2 (O88943 whole entry W236L): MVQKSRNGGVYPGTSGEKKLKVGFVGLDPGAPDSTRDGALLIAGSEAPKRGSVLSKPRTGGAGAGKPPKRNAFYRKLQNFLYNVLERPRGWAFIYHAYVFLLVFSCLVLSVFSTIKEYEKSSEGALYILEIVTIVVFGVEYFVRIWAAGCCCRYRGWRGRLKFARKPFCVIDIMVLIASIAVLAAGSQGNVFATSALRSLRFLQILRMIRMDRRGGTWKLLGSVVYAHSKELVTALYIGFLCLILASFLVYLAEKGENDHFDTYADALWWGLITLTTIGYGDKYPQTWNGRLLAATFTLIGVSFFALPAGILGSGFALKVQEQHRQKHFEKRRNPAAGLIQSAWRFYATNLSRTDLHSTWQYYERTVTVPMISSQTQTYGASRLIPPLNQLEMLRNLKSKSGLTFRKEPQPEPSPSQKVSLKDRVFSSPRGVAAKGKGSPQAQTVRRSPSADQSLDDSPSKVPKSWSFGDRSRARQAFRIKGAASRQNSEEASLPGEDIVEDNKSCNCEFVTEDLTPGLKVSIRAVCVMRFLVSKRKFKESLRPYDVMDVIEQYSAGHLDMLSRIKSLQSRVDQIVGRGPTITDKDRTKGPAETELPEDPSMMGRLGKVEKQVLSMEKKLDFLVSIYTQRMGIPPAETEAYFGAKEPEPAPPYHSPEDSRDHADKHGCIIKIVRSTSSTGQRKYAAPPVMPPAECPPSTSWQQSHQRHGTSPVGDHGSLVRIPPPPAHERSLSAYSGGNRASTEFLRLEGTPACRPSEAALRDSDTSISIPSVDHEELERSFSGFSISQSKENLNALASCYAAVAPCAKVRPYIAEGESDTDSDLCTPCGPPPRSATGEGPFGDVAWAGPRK

Genome polyprotein = Genome polyprotein (dengue virus type 2, UniProt P29990); assay: flavivirus cap methylation enzyme inhibition – biochemical, confirmation dose response, primary screen (AID 588689); type: functional
Chain of Genome polyprotein (P29990 2492-3391 limits assumed): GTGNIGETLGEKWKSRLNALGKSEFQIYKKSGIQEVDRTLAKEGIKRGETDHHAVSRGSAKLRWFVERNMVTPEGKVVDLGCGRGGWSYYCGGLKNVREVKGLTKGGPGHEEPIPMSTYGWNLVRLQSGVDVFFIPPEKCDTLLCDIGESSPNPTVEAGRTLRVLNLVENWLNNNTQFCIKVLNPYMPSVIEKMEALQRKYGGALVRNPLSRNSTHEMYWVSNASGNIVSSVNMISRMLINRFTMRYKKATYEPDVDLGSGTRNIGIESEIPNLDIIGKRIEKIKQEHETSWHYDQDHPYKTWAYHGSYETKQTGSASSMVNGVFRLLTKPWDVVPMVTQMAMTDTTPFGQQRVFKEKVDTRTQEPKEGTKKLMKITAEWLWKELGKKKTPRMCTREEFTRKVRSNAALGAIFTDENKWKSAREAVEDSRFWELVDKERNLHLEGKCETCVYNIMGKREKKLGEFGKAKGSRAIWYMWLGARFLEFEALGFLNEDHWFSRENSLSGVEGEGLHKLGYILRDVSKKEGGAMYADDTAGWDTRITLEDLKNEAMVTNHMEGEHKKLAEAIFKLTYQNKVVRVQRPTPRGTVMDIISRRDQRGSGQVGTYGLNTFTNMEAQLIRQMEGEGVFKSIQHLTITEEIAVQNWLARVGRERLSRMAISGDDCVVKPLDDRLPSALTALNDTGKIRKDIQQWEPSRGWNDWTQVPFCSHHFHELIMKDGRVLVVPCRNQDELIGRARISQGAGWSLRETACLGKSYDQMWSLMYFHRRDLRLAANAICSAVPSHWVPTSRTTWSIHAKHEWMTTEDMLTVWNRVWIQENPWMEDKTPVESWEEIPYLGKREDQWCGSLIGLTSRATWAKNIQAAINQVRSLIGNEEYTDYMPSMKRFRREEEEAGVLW

[9] = molecular target: Glyceraldehyde-3-phosphate dehydrogenase (Homo sapiens, UniProt P04406)
Chain of Glyceraldehyde-3-phosphate dehydrogenase (P04406 whole entry): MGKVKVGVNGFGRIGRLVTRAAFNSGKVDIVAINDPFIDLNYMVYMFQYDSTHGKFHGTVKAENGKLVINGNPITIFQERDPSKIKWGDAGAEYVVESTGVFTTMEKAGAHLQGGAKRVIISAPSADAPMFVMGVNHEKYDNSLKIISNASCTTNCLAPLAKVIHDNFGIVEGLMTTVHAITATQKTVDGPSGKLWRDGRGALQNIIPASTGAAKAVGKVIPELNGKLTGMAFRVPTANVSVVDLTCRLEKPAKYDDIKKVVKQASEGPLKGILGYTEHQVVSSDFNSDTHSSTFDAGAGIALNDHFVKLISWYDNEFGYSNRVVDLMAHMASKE

Chain of Trypsin (P00761 whole entry): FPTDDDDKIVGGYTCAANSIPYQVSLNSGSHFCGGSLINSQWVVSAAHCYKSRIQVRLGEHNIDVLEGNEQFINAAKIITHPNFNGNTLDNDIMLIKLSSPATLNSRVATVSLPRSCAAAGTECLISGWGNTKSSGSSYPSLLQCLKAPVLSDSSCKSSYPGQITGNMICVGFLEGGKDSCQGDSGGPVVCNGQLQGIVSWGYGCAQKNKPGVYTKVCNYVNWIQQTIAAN

Cc1nc(N2CCCCC2)c2c(C)c(C(=O)Nc3ccccc3C(F)(F)F)sc2n1
AC50 (Trypsin): > 100 µM (inactive) | IC50 [1]: 7.1 µM (active) | AC50 [2]: 2.18 µM (active) | AC50 (CAAX prenyl protease 2): 13.4 µM (active) | IC50 [3]: 6.66 µM (active)

O=c1cc(Cn2ccnc2)c2cc3c(cc2o1)CCC3
EC50 [4]: > 79.4 µM (not active) | EC50 [5]: > 79.4 µM (not active) | EC50 [6]: > 79.4 µM (not active)

Cc1oc2cc([N+](=O)[O-])c(O)c([N+](=O)[O-])c2c1C(=O)c1ccc(Cl)cc1
AC50 [7]: 4.12 µM (active) | EC50 (Protein RecA): 10.4 µM (active) | EC50 [8]: 555 µM (active) | IC50 (Genome polyprotein): 61.9 µM (active)

COc1cccc(N2C(=O)C(Cl)=C(N(C)C)C2=O)c1
IC50 [9]: > 50 µM (inconclusive)
